What was measured:
[1] = target: T1, human recombinant ETA receptors (Homo sapiens, UniProt P25101); assay: Inhibition of endothelin binding to membranes from CHO cells carrying human ETA receptors
T1 construct: expressed in transfected cells; host or cells: CHO cells (microsomal membranes)
T1 sequence (P25101 21-427): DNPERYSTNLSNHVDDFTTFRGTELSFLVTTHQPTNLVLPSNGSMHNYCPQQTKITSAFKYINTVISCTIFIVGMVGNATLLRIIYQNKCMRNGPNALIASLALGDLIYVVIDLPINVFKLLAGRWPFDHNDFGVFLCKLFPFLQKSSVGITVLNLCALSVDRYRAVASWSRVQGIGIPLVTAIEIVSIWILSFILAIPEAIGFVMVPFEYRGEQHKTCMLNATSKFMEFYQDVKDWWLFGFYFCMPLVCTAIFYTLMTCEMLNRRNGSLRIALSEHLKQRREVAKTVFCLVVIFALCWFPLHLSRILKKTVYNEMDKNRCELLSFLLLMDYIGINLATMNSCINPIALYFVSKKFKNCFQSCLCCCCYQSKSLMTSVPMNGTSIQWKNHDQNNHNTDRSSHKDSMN
Protocol: 1) Inhibition of Endothelin Binding to Membranes from CHO Cells Carrying Human ET Receptors
For competition binding studies, membranes of CHO cells expressing human recombinant ETA or ETB receptors were used.
All the test compounds were dissolved, diluted and added in DMSO.

[2] = target: T2, ETA receptors (Rattus norvegicus, UniProt P26684); assay: Inhibition of endothelin-1-induced contraction on isolated rat aortic rings
T2 construct: The thoracic aorta or trachea were excised, dissected and cut in 3-5 mm rings; from tissue; host or cells: thoracic aorta rings of adult Wistar rats, endothelium removed
T2 sequence (P26684 21-426): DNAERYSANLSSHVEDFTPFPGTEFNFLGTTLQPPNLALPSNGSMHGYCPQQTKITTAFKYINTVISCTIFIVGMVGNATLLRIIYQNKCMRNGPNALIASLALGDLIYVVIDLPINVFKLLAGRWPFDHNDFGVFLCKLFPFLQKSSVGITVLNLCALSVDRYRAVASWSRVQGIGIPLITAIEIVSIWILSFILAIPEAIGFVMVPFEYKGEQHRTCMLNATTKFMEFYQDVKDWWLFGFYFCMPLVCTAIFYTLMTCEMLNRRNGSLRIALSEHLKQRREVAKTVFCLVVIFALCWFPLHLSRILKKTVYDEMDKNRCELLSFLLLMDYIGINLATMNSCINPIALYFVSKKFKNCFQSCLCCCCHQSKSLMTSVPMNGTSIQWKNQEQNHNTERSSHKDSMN
Protocol: 2) Inhibition of Endothelin-Induced Contractions on Isolated Rat Aortic Rings (ETA Receptors) and Rat Tracheal Rings (ETB Receptors)
The functional inhibitory potency of the endothelin antagonists was assessed by their inhibition of the contraction induced by endothelin-1 on rat aortic rings (ETA receptors) and of the contraction induced by sarafotoxin S6c on rat tracheal rings (ETB receptors). Adult Wistar rats were anesthetized and exsanguinated. The thoracic aorta or trachea were excised, dissected and cut in 3-5 mm rings. The endothelium/epithelium was removed by gentle rubbing of the intimal surface. Each ring was suspended in a 10 mL isolated organ bath filled with Krebs-Henseleit solution (in mM; NaCl 115, KCl 4.7, MgSO4 1.2, KH2PO4 1.5, NaHCO3 25, CaCl2 2.5, glucose 10) kept at 37° C. and gassed with 95% O2 and 5% CO2. The rings were connected to force transducers and isometric tension was recorded (EMKA Technologies SA, Paris, France). The rings were stretched to a resting tension of 3 g (aorta) or 2 g (trachea). […] The functional inhibitory potency of the test compound was assessed by calculating the concentration ratio, i.e. the shift to the right of the EC50 induced by different concentrations of test compound. […]

[3] = Pharmacokinetics in the rat after single-dose oral administration; format: in vivo; settings: male Wistar rats, plasma; for half-life: oral gavage 10 mg/kg; for clearance: oral, 10 mg/kg
Protocol: Pharmacokinetics in the Rat After Single-Dose Oral Administration
Male Wistar rats with a body weight of 200-250 g were used for pharmacokinetic experiments after an acclimatization period of at least 7 days. All animals were housed under conditions in accordance with the NIH guidelines. Two days prior to the experiment, rats were anesthetized with a mixture of ketamin (90 mg/kg) and xylazine 2% (10 mg/kg) i.p. A catheter was implanted under aseptic conditions into the jugular vein to allow for multiple blood sampling. After recovery from general anesthesia, animals were housed individually under standard laboratory conditions in Makrolon type-3 cages with wire mesh tops and standardized softwood bedding. Animals had free access to water and food during the recovery period and the entire duration of the experiment.
Pharmacokinetic experiments were performed in Wistar rats (m=2-3) after jugular vein cannulation to allow for serial blood sampling. Test compounds were administered orally by gavage at doses of 10 mg/kg. Blood was then sampled at pre-defined time points over a period of 24 h and plasma prepared by centrifugation. Drug concentrations in plasma were quantified using liquid chromatography coupled to mass spectrometry (limit of quantification: 4.6 ng/mL). Pharmacokinetic evaluation was performed using non-compartmental analysis.

Compound	IC50 [1]	Kb [2]	half-life [3]	clearance [3]
NS(=O)(=O)Nc1ncnc(OCCOc2ncc(Br)cn2)c1-c1ccc(Br)cc1 [Compound of formula I, {5-(4-bromo-phenyl)-6-[2-(5-bromo-pyrimidin-2-yloxy)-ethoxy]-pyrimidin-4-yl}-sulfamide]	3.7 nM	200 nM	8.7 h	1.3 mL/min/kg
CCCNS(=O)(=O)Nc1ncnc(OCCOc2ncc(Br)cn2)c1-c1ccc(Br)cc1 [Reference Compound, Propylsulfamic acid [5(4 bromo-phenyl)-6-[2-(5-bromo-pyrimidin-2-yloxy)-ethoxy]-pyrimidin-4-yl]-amide, reference compound]	–	–	2.8 to 4.2 h	5.7 to 10 mL/min/kg
